# In patent US20230023009A1, “HETEROCYCLIC COMPOUNDS AND METHODS OF USE THEREOF” (SPARCBIO LLC, priority 2020, published 2023):
# Target: KRAS G12C protein (Homo sapiens, UniProt P01116, G12C)
# Experiment: Nucleotide exchange assay (Method III, KRAS G12C/Raf-RBD TR-FRET)
# Format: biochemical
# Settings: SOS1-mediated exchange of GDP for GTP, 18 hr compound incubation
# Protocol: Method III. Inhibition of SOS1-mediated exchange of GDP for GTP on the KRAS G12C protein was measured in a biochemical assay that monitors association of KRAS G12C protein with the Ras-binding domain of Raf (Raf-RBD), where the association is coupled to exchange of GDP to GTP on the KRAS G12C protein. The assay was performed at WuXi AppTec (Shanghai, China). Compounds were serially diluted in 3-fold dilutions to 11 concentrations and spotted into the wells of an assay plate in a total volume of 150 nL DMSO per well. A 2× enzyme mix was prepared by diluting GDP-bound, His-tagged KRAS G12C to 25 nM in assay buffer. 10 μL/well of 2× enzyme mix was added to all wells, and the plate was sealed and incubated overnight (18 hr) at 23° C. 4×SOS1/GDP and 4×SOS1/GTP were prepared in assay buffer. 5 μL/well of 4×SOS1/GDP mix was added to negative control wells, 5 μL/well of 4×SOS1/GTP mix was added to the remaining wells, and the plate was further incubated at 23° C. for 1 hr. Finally, FLAG-tagged Raf-RBD is added to the reaction mixture along with a pair of FRET donor- and acceptor-conjugated antibodies specific for the FLAG-tagged Raf-RBD and His-tagged KRAS G12C proteins. A 4×Raf-RBD/Tb-anti-FLAG/D2-anti-His mix was prepared in assay buffer, and 5 μL/well of the mix was added to all wells, followed by incubation at room temperature for 2 hr. The TR-FRET signals, which increase with association of KRAS G12C and Raf-RBD, were measured on a Perkin Elmer Envision 2104 plate reader, and data were analyzed by non-linear regression to obtain IC50 values for inhibition by compounds. Table 2 includes results of the assay of Method III. ‘+++’ indicates IC50 values≤300 nM, ‘++’ indicates IC50 values between 300 nM-3 μM, and ‘+’ indicates IC50 values≥3 μM.
# KRAS G12C protein, sequence (P01116 1-188 isoform P01116-2 G12C): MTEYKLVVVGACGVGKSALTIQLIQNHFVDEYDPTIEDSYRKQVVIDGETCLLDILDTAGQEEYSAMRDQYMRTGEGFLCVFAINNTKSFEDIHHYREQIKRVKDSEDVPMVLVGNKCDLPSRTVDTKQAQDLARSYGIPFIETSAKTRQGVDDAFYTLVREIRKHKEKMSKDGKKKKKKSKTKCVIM
row,SMILES,IC50
1,"C=C(F)C(=O)N1CCN(c2nc(Oc3cccc4c3CCN(C)C4)nc3c2COC(c2cccc4cccc(Cl)c24)C3)C[C@@H]1CC#N (single isomer, unassigned) [250 (Isomer A)]",0.3 to 3 µM
2,"CN(C)C/C=C/C(=O)N1CCN(c2nc(OC[C@@H]3CCCN3C)nc3c2COC(c2cccc4cccc(Cl)c24)C3)C[C@@H]1CC#N (single isomer, unassigned) [242 (Isomer B)]",≤ 0.3 µM
3,"C=C(F)C(=O)N1[C@H](C)CN(c2nc(OC[C@@H]3CCCN3C)nc3c2COC(c2cccc4cccc(Cl)c24)C3)C[C@@H]1C (single isomer, unassigned) [237 (Isomer B)]",≥ 3 µM
4,"C=C(F)C(=O)N1CCN(c2nc(OC3CN(C)CC3C)nc3c2COC(c2cccc4cccc(Cl)c24)C3)C[C@@H]1CC#N (single isomer, unassigned) [272 (Isomer A)]",≥ 3 µM
5,"C=C(F)C(=O)N1CCN(c2nc(OC[C@@H]3CCCN3C)nc3c2COC(c2cccc4cccc(Cl)c24)C3)[C@@H](C)C1 (single isomer, unassigned) [44 (Isomer B)]",0.3 to 3 µM
6,"C=C(F)C(=O)N1CCN(c2nc(Oc3cccc4c3CN(C)CC4)nc3c2COC(c2cccc4cccc(Cl)c24)C3)C[C@@H]1CC#N (single isomer, unassigned) [249 (Isomer A)]",0.3 to 3 µM
7,"C=C(F)C(=O)N1CCN(c2nc(N3CCC(N(CC)CC)CC3)nc3c2COC(c2cccc4cccc(Cl)c24)C3)C[C@@H]1CC#N (single isomer, unassigned) [230 (Isomer B)]",0.3 to 3 µM
8,"C=C(F)C(=O)N1CCN(c2nc(NC3CCN(S(C)(=O)=O)CC3)nc3c2COC(c2cccc4cccc(Cl)c24)C3)C[C@@H]1CC#N (single isomer, unassigned) [231 (Isomer B)]",≥ 3 µM
9,"C=C(F)C(=O)N1CCN(c2nc(OC3CCN(C)CC3)nc3c2COC(c2cccc4cccc(Cl)c24)C3)C[C@@H]1CC#N (single isomer, unassigned) [234 (Isomer A)]",≥ 3 µM
10,"C=C(F)C(=O)N1CCN(c2nc(N3CCC(N(CC)CC)CC3)nc3c2COC(c2cccc4cccc(Cl)c24)C3)C[C@@H]1CC#N (single isomer, unassigned) [230 (Isomer A)]",≥ 3 µM
11,"C=C(F)C(=O)N1CCN(c2nc(Oc3cccc4c3CCN(C)C4)nc3c2COC(c2cccc4cccc(Cl)c24)C3)C[C@@H]1CC#N (single isomer, unassigned) [250 (Isomer B)]",0.3 to 3 µM
12,"C=C(F)C(=O)N1CCN(c2nc(NCCC(=O)N(C)C)nc3c2COC(c2cccc4cccc(Cl)c24)C3)C[C@@H]1CC#N (single isomer, unassigned) [232 (Isomer B)]",≥ 3 µM
13,"C/C=C/C(=O)N1CCN(c2nc(OC[C@@H]3CCCN3C)nc3c2COC(c2cccc4cccc(Cl)c24)C3)C[C@@H]1CC#N (single isomer, unassigned) [241 (Isomer B)]",0.3 to 3 µM
14,"C=C(F)C(=O)N1CCN(c2nc(OC[C@@H]3CCCN3C)nc3c2COC(c2c(C)ccc4[nH]ncc24)C3)C[C@@H]1CC#N (single isomer, unassigned) [52 (Isomer A)]",0.3 to 3 µM
15,"C=C(F)C(=O)N1CCN(c2nc(OC[C@@H]3CCCN3C)nc3c2COC(c2cccc4cccc(Cl)c24)C3(C)C)C[C@@H]1CC#N (single isomer, unassigned) [258 (Isomer A)]",≥ 3 µM
16,"C=C(F)C(=O)N1CCN(c2nc(N3CC(N(CC)CC)C3)nc3c2COC(c2cccc4cccc(Cl)c24)C3)C[C@@H]1CC#N (single isomer, unassigned) [229 (Isomer B)]",≥ 3 µM
17,"C=C(Cl)C(=O)N1CCN(c2nc(OC[C@@H]3CCCN3C)nc3c2COC(c2cccc4cccc(Cl)c24)C3)C[C@@H]1CC#N (single isomer, unassigned) [239 (Isomer A)]",≥ 3 µM
18,"CC#CC(=O)N1CCN(c2nc(OC[C@@H]3CCCN3C)nc3c2COC(c2cccc4cccc(Cl)c24)C3)C[C@@H]1CC#N (single isomer, unassigned) [243 (Isomer A)]",≥ 3 µM
19,"C=CC(=O)N1CCN(c2nc(OC[C@@H]3CCCN3C)nc3c2COC(c2cccc4cccc(Cl)c24)C3)C[C@@H]1CC#N (single isomer, unassigned) [38 (Isomer A)]",0.3 to 3 µM
20,"C=C(F)C(=O)N1CCN(c2nc(OC[C@@H]3CCCN3C)nc3c2COC(c2cccc4sc(N)nc24)C3)C[C@@H]1CC#N (single isomer, unassigned) [260 (Isomer B)]",≤ 0.3 µM

row,SMILES,IC50
1,"C=C(F)C(=O)N1CCN(c2nc(NC3CCN(S(C)(=O)=O)CC3)nc3c2COC(c2cccc4cccc(Cl)c24)C3)C[C@@H]1CC#N (single isomer, unassigned) [231 (Isomer A)]",≥ 3 µM
2,"C=C(F)C(=O)N1CCN(c2nc(OC[C@@H]3CCCN3C)nc3c2COC(c2cccc4cccc(Cl)c24)C3)CC1(C)C (single isomer, unassigned) [238 (Isomer B)]",≥ 3 µM
3,"C=C(F)C(=O)N1CCN(c2nc(OC[C@@H]3CCCN3C)nc3c2CC=C(c2cccc4cccc(Cl)c24)O3)CC1 [Compound 174, (S)-1-(4-(7-(8-chloronaphthalen-1-yl)-2-((1-methylpyrrolidin-2-yl)methoxy)-5H-pyrano[2,3-d]pyrimidin-4-yl)piperazin-1-yl)-2-fluoroprop-2-en-1-one]",≥ 3 µM
4,"C=C(F)C(=O)N1CCN(c2nc(OC[C@@H]3CCCN3C)nc3c2OCC(c2cccc4cccc(Cl)c24)O3)[C@@H](C)C1 (single isomer, unassigned) [136 (Isomer A)]",≥ 3 µM
5,"C=C(F)C(=O)N1CCN(c2nc(Nc3cnn(C)c3)nc3c2COC(c2cccc4cccc(Cl)c24)C3)C[C@@H]1CC#N (single isomer, unassigned) [233 (Isomer A)]",≥ 3 µM
6,"CN(C)C/C=C/C(=O)N1CCN(c2nc(OC[C@@H]3CCCN3C)nc3c2COC(c2cccc4cccc(Cl)c24)C3)C[C@@H]1CC#N (single isomer, unassigned) [242 (Isomer A)]",≥ 3 µM
7,"C=C(F)C(=O)N1CCN(c2nc(OC[C@@H]3CCCN3C)nc3c2COC(c2cccc4cccc(Cl)c24)C3)C[C@H]1C (single isomer, unassigned) [42 (Isomer A)]",≥ 3 µM
8,"C=C(F)C(=O)N1CCN(c2nc(OC3CN(C)CC3C)nc3c2COC(c2cccc4cccc(Cl)c24)C3)C[C@@H]1CC#N (single isomer, unassigned) [272 (Isomer B)]",≥ 3 µM
9,"C=C(F)C(=O)N1CCN(c2nc(OC3CN(C)CC3C)nc3c2COC(c2cccc4cccc(Cl)c24)C3)C[C@@H]1CC#N (single isomer, unassigned) [272 (Isomer D)]",0.3 to 3 µM
10,"C=CC(=O)N1CCN(c2nc(OC[C@@H]3CCCN3C)nc3c2OCC(c2cccc4cccc(Cl)c24)O3)CC1 (single isomer, unassigned) [135 (Isomer B)]",≥ 3 µM
11,"C=C(F)C(=O)N1[C@H](C)CN(c2nc(OC[C@@H]3CCCN3C)nc3c2COC(c2cccc4cccc(Cl)c24)C3)C[C@@H]1C (single isomer, unassigned) [237 (Isomer A)]",≥ 3 µM
12,"C=C(F)C(=O)N1C[C@H](C)N(c2nc(OC[C@@H]3CCCN3C)nc3c2COC(c2cccc4cccc(Cl)c24)C3)C[C@H]1C (single isomer, unassigned) [235 (Isomer B)]",≥ 3 µM
13,"C=C(F)C(=O)N1CCN(c2nc(OC[C@@H]3CCCN3C)nc3c2OCC(c2cccc4cccc(Cl)c24)O3)C[C@@H]1CC#N (single isomer, unassigned) [64 (Isomer A)]",0.3 to 3 µM
14,"C=C(F)C(=O)N1CCN(c2nc(OC[C@@H]3CCCN3C)nc3c2COC(c2cccc4cccc(Cl)c24)C3)CC1(C)C (single isomer, unassigned) [238 (Isomer A)]",≥ 3 µM
15,"C=C(F)C(=O)N1C[C@H](C)N(c2nc(OC[C@@H]3CCCN3C)nc3c2COC(c2cccc4cccc(Cl)c24)C3)C[C@H]1C (single isomer, unassigned) [235 (Isomer A)]",≥ 3 µM
16,"C=C(F)C(=O)N1CCN(c2nc(Nc3cnn(C)c3)nc3c2COC(c2cccc4cccc(Cl)c24)C3)C[C@@H]1CC#N (single isomer, unassigned) [233 (Isomer B)]",≥ 3 µM
17,"C=CC(=O)N1CCN(c2nc(OC[C@@H]3CCCN3C)nc3c2OCC(c2cccc4cccc(Cl)c24)O3)CC1 (single isomer, unassigned) [135 (Isomer A)]",≥ 3 µM
18,"C=C(F)C(=O)N1CCN(c2nc(OC3CCN(C)CC3)nc3c2COC(c2cccc4cccc(Cl)c24)C3)C[C@@H]1CC#N (single isomer, unassigned) [234 (Isomer B)]",0.3 to 3 µM
19,"C=C(C)C(=O)N1CCN(c2nc(OC[C@@H]3CCCN3C)nc3c2COC(c2cccc4cccc(Cl)c24)C3)C[C@@H]1CC#N (single isomer, unassigned) [240 (Isomer A)]",≥ 3 µM
20,"C=C(F)C(=O)N1CCN(c2nc(OC[C@@H]3CCCN3C)nc3c2CC=C(c2cccc4cccc(Cl)c24)O3)C[C@H]1C [Compound 154, 1-((R)-4-(7-(8-chloronaphthalen-1-yl)-2-(((S)-1-methylpyrrolidin-2-yl)methoxy)-5H-pyrano[2,3-d]pyrimidin-4-yl)-2-methylpiperazin-1-yl)-2-fluoroprop-2-en-1-one]",≥ 3 µM
